Patent publication US20250049035A1, “MICROBIOCIDAL BICYCLE HETEROCYCLIC DERIVATIVES” (SYNGENTA CROP PROTECTION AG, priority 2021, published 2025)

Experiments:
[1] = test system: Mycosphaerella graminicola (Septoria tritici); assay: Mycosphaerella graminicola (Septoria tritici) / liquid culture (Septoria blotch); assay type: cell-based; settings: Zymoseptoria tritici, liquid culture (potato dextrose broth), growth inhibition photometrically 4-5 days after application, compared to untreated control
Method: (§1) Example B15: Mycosphaerella graminicola (Septoria tritici/Liquid Culture (Septoria Blotch) Conidia of the fungus from cryogenic storage are directly mixed into a nutrient broth (potato dextrose broth). After placing a DMSO solution of test compound into a microtiter plate (96-well format), the nutrient broth containing the fungal spores is added. The test plates are incubated at 24° C. and the inhibition of growth is determined photometrically 4-5 days after application.

[2] = test system: Fusarium culmorum; assay: microbe, parasite or virus in culture; assay type: cell-based; settings: read-out: control of Fusarium culmorum
[3] = test system: Alternaria solani; assay: Alternaria solani / tomato / leaf disc (early blight); assay type: in vivo; settings: foliar, tomato leaf disks cv. Baby, inoculated 2 days after application, assessed 5-7 days after application, compared to untreated control
Method: Example B1: Alternaria solani/Tomato/Leaf Disc (Early Blight) Tomato leaf disks cv. Baby are placed on agar in multiwell plates (24-well format) and sprayed with the formulated test compound diluted in water. The leaf disks are inoculated with a spore suspension of the fungus 2 days after application. The inoculated leaf disks are incubated at 23° C./21° C.

[4] = test system: Mycosphaerella arachidis (Cercospora arachidicola); assay: Mycosphaerella arachidis (Cercospora arachidicola) / liquid culture (early leaf spot); assay type: cell-based; settings: liquid culture (potato dextrose broth), growth inhibition photometrically 4-5 days after application, compared to untreated control
Method: as §1, with “B10:” for “B15:”, “arachidis (Cercospora arachidicola)/Liquid” for “graminicola (Septoria tritici/Liquid”, “(Early Leaf Spot)” for “(Septoria Blotch)”, “broth)” for “broth).”

[5] = test system: Phaeosphaeria nodorum (Septoria nodorum); assay: Phaeosphaeria nodorum (Septoria nodorum) / wheat / leaf disc preventative (glume blotch); assay type: in vivo; settings: Parastagonospora nodorum, foliar, wheat leaf segments cv. Kanzler, inoculated 2 days after application, assessed 5-7 days after application, compared to untreated control
Method: Example B8: Phaeosphaeria Nodorum (Septoria nodorum)/Wheat/Leaf Disc Preventative (Glume Blotch) Wheat leaf segments cv. Kanzler are placed on agar in a multiwell plate (24-well format) and sprayed with the formulated test compound diluted in water. The leaf disks are inoculated with a spore suspension of the fungus 2 days after application. The inoculated test leaf disks are incubated at 20° C. and 75% relative humidity under a light regime of 12 h light/12 h darkness in a climate cabinet and the activity of a compound is assessed as percent disease control compared to untreated when an appropriate level of disease damage appears in untreated check leaf disks (5-7 days after application).

[6] = test system: Monographella nivalis (Microdochium nivale); assay: Monographella nivalis (Microdochium nivale) / liquid culture (foot rot cereals); assay type: cell-based; settings: liquid culture (potato dextrose broth), growth inhibition photometrically 4-5 days after application, compared to untreated control
Method: as §1, with “B9: Monographella nivalis (Microdochium nivale)/Liquid” for “B15: Mycosphaerella graminicola (Septoria tritici/Liquid”, “(Foot Rot Cereals)” for “(Septoria Blotch)”

[7] = test system: Sclerotinia sclerotiorum; assay: Sclerotinia sclerotiorum / liquid culture (cottony rot); assay type: cell-based; settings: liquid culture (potato dextrose broth), growth inhibition photometrically 3-4 days after application, compared to untreated control
Method: Example B14: Sclerotinia sclerotiorum/Liquid Culture (Cottony Rot) Mycelia fragments of a newly grown liquid culture of the fungus are directly mixed into a nutrient broth (potato dextrose broth). After placing a DMSO solution of test compound into a microtiter plate (96-well format) the nutrient broth containing the fungal material is added. The test plates are incubated at 24° C. and the inhibition of growth is determined photometrically 3-4 days after application.

[8] = test system: Glomerella lagenarium (Colletotrichum lagenarium); assay: Glomerella lagenarium (Colletotrichum lagenarium) / liquid culture (anthracnose); assay type: cell-based; settings: Colletotrichum orbiculare, liquid culture (potato dextrose broth), growth inhibition photometrically 3-4 days after application, compared to untreated control
Method: as §1, with “B3: Glomerella lagenarium (Colletotrichum lagenarium)/Liquid” for “B15: Mycosphaerella graminicola (Septoria tritici/Liquid”, “(Anthracnose)” for “(Septoria Blotch)”, “measured” for “determined”, “3-4” for “4-5”

[9] = test system: Botryotinia fuckeliana (Botrytis cinerea); assay: Botryotinia fuckeliana (Botrytis cinerea) / liquid culture (gray mould); assay type: cell-based; settings: liquid culture (Vogels broth), growth inhibition photometrically 3-4 days after application, compared to untreated control
Method: as §1, with “B2: Botryotinia fuckeliana (Botrytis cinerea)/Liquid” for “B15: Mycosphaerella graminicola (Septoria tritici/Liquid”, “(Gray Mould)” for “(Septoria Blotch)”, “(Vogels” for “(potato dextrose”, “3-4” for “4-5”

[10] = test system: Pyrenophora teres; assay: Pyrenophora teres / barley / leaf disc preventative (net blotch); assay type: in vivo; settings: foliar, barley leaf segments cv. Hasso, inoculated 2 days after application, assessed 5-7 days after application, compared to untreated control
Method: Example B12: Pyrenophora teres/Barley/Leaf Disc Preventative (Net Blotch) Barley leaf segments cv. Hasso are placed on agar in a multiwell plate (24-well format) and sprayed with the formulated test compound diluted in water. The leaf segments are inoculated with a spore suspension of the fungus 2 days after application. The inoculated leaf segments are incubated at 20° C. and 65% relative humidity under a light regime of 12 h light/12 h darkness in a climate cabinet and the activity of a compound is assessed as disease control compared to untreated when an appropriate level of disease damage appears in untreated check leaf segments (5-7 days after application).

[11] = test system: Blumeria graminis f. sp. tritici (Erysiphe graminis f. sp. tritici); assay: Blumeria graminis f. sp. tritici / wheat / leaf disc preventative (powdery mildew); assay type: in vivo; settings: foliar, wheat leaf segments cv. Kanzler, inoculated 1 day after application, assessed 6-8 days after application, compared to untreated control
Method: Example B4: Blumeria graminis f. sp. tritici (Erysiphe graminis f. sp. tritici)/Wheat/Leaf Disc Preventative (Powdery Mildew on Wheat) Wheat leaf segments cv. Kanzler are placed on agar in a multiwell plate (24-well format) and sprayed with the formulated test compound diluted in water. The leaf disks are inoculated by shaking powdery mildew infected plants above the test plates 1 day after application. The inoculated leaf disks are incubated at 20° C. and 60% relative humidity under a light regime of 24 h darkness followed by 12 h light/12 h darkness in a climate chamber and the activity of a compound is assessed as percent disease control compared to untreated when an appropriate level of disease damage appears on untreated check leaf segments (6-8 days after application).

C[C@H]1c2sccc2[C@@](C)(c2cnn(C)c2)CN1C(=O)c1nnc(-c2ccc(F)cc2F)s1 (racemic) [Compound P-10, [5-(2,4-difluorophenyl)-1,3,4-thiadiazol-2-yl]-[rac-(4S,7R)-4,7-dimethyl-4-(1-methylpyrazol-4-yl)-5,7-dihydrothieno[2,3-c]pyridin-6-yl]methanone]
≥ 80%: inhibition of growth at 20 ppm [1] | inhibition of growth at 20 ppm [2] | pest or weed control at 200 ppm [3] | inhibition of growth at 20 ppm [4] | pest or weed control at 200 ppm [5] | inhibition of growth at 20 ppm [6] | inhibition of growth at 20 ppm [7] | inhibition of growth at 20 ppm [8] | inhibition of growth at 20 ppm [9]

C[C@H]1c2sccc2[C@@](C)(c2cnn(C)c2)CN1C(=O)c1cc(-c2ccc(F)cc2F)on1 (racemic) [Compound P-12, [5-(2,4-difluorophenyl)isoxazol-3-yl]-[rac-(4S,7R)-4,7-dimethyl-4-(1-methylpyrazol-4-yl)-5,7-dihydrothieno[2,3-c]pyridin-6-yl]methanone]
≥ 80%: inhibition of growth at 20 ppm [1] | pest or weed control at 200 ppm [3] | inhibition of growth at 20 ppm [4] | pest or weed control at 200 ppm [5] | inhibition of growth at 20 ppm [6] | inhibition of growth at 20 ppm [7] | inhibition of growth at 20 ppm [8] | inhibition of growth at 20 ppm [9]

C[C@H]1c2sccc2[C@@H](c2cnn(C)c2)CN1C(=O)c1nnc(-c2ccc(F)cc2F)s1 (racemic) [Compound P-15, [5-(2,4-difluorophenyl)-1,3,4-thiadiazol-2-yl]-[rac-(4R,7S)-7-methyl-4-(1-methylpyrazol-4-yl)-5,7-dihydro-4H-thieno[2,3-c]pyridin-6-yl]methanone]
≥ 80%: inhibition of growth at 20 ppm [1] | pest or weed control at 200 ppm [10] | inhibition of growth at 20 ppm [2] | pest or weed control at 200 ppm [3] | pest or weed control at 200 ppm [11] | inhibition of growth at 20 ppm [4] | pest or weed control at 200 ppm [5] | inhibition of growth at 20 ppm [8] | inhibition of growth at 20 ppm [9]

Cc1c(C2CN(C(=O)c3nnc(-c4ccc(F)cc4F)s3)Cc3ccsc32)cnn1C (centres unmarked) [Compound P-7, [5-(2,4-difluorophenyl)-1,3,4-thiadiazol-2-yl]-[7-(1,5-dimethylpyrazol-4-yl)-6,7-dihydro-4H-thieno[3,2-c]pyridin-5-yl]methanone]
≥ 80%: inhibition of growth at 20 ppm [1] | inhibition of growth at 20 ppm [2] | pest or weed control at 200 ppm [11] | inhibition of growth at 20 ppm [4] | inhibition of growth at 20 ppm [6] | inhibition of growth at 20 ppm [7] | inhibition of growth at 20 ppm [8] | inhibition of growth at 20 ppm [9]

Cn1cc(C2(C)CN(C(=O)c3cc(-c4ccc(F)cc4F)on3)Cc3sccc32)cn1 (centres unmarked) [Compound P-19, [5-(2,4-difluorophenyl)isoxazol-3-yl]-[4-methyl-4-(1-methylpyrazol-4-yl)-5,7-dihydrothieno[2,3-c]pyridin-6-yl]methanone]
≥ 80%: inhibition of growth at 20 ppm [1] | pest or weed control at 200 ppm [10] | pest or weed control at 200 ppm [3] | pest or weed control at 200 ppm [11] | inhibition of growth at 20 ppm [4] | pest or weed control at 200 ppm [5] | inhibition of growth at 20 ppm [7] | inhibition of growth at 20 ppm [8] | inhibition of growth at 20 ppm [9]

Cn1cc(C2CN(C(=O)c3nnc(-c4ccc(F)cc4F)s3)Cc3sccc32)cn1 (centres unmarked) [Compound P-24, [5-(2,4-difluorophenyl)-1,3,4-thiadiazol-2-yl]-[4-(1-methylpyrazol-4-yl)-5,7-dihydro-4H-thieno[2,3-c]pyridin-6-yl]methanone]
≥ 80%: inhibition of growth at 20 ppm [1] | pest or weed control at 200 ppm [10] | inhibition of growth at 20 ppm [2] | pest or weed control at 200 ppm [3] | inhibition of growth at 20 ppm [4] | pest or weed control at 200 ppm [5] | inhibition of growth at 20 ppm [6] | inhibition of growth at 20 ppm [7] | inhibition of growth at 20 ppm [8] | inhibition of growth at 20 ppm [9]

Cc1c(C2CN(C(=O)c3cc(-c4ccc(F)cc4F)on3)Cc3nnsc32)cnn1C (centres unmarked) [Compound P-27, [5-(2,4-difluorophenyl)isoxazol-3-yl]-[7-(1,5-dimethylpyrazol-4-yl)-6,7-dihydro-4H-thiadiazolo[4,5-c]pyridin-5-yl]methanone]
≥ 80%: inhibition of growth at 20 ppm [1] | pest or weed control at 200 ppm [10] | pest or weed control at 200 ppm [3] | pest or weed control at 200 ppm [11] | pest or weed control at 200 ppm [5] | inhibition of growth at 20 ppm [6] | inhibition of growth at 20 ppm [8]

Cc1c(C2CN(C(=O)c3cc(-c4ccc(F)cc4)on3)Cc3sccc32)cnn1C (centres unmarked) [Compound P-30, [4-(1,5-dimethylpyrazol-4-yl)-5,7-dihydro-4H-thieno[2,3-c]pyridin-6-yl]-[5-(4-fluorophenyl)isoxazol-3-yl]methanone]
≥ 80%: inhibition of growth at 20 ppm [1] | pest or weed control at 200 ppm [10] | pest or weed control at 200 ppm [3] | inhibition of growth at 20 ppm [4] | pest or weed control at 200 ppm [5] | inhibition of growth at 20 ppm [6] | inhibition of growth at 20 ppm [7] | inhibition of growth at 20 ppm [8] | inhibition of growth at 20 ppm [9]

Cc1c(C2CN(C(=O)c3cc(-c4ccccc4F)on3)Cc3ccsc32)cnn1C (centres unmarked) [Compound P-34, [7-(1,5-dimethylpyrazol-4-yl)-6,7-dihydro-4H-thieno[3,2-c]pyridin-5-yl]-[5-(2-fluorophenyl)isoxazol-3-yl]methanone]
≥ 80%: inhibition of growth at 20 ppm [1] | pest or weed control at 200 ppm [10] | inhibition of growth at 20 ppm [2] | pest or weed control at 200 ppm [3] | inhibition of growth at 20 ppm [4] | pest or weed control at 200 ppm [5] | inhibition of growth at 20 ppm [6] | inhibition of growth at 20 ppm [7] | inhibition of growth at 20 ppm [8] | inhibition of growth at 20 ppm [9]

Cc1c(C2CN(C(=O)c3cc(-c4ccccc4F)on3)Cc3ccsc32)cnn1C (centres unmarked) [Compound P-35, [7-(1,5-dimethylpyrazol-4-yl)-6,7-dihydro-4H-thieno[3,2-c]pyridin-5-yl]-[5-(2-fluorophenyl)isoxazol-3-yl]methanone]
≥ 80%: pest or weed control at 200 ppm [11]
